Test results: patent US4355026A, “4-Demethoxy,11-deoxy anthracycline derivatives” (priority 1980, dated 1982)
Values after ≈ are worked out from the molar mass of the structure shown. Read-outs that look alike come from different tables or passages of the source. Values belong to the compound of their own block, whether it stands above or below them.

Key:
L1210 leukemia cells [1] = experiment: Inhibitory effect on growth of L1210 cultivated leukemic cells of mice; type: cell-based; conditions: Mus musculus, RPMI 1640, 20% calf serum, 37° C.
Procedure: (§1) A. Inhibitory Effect on Growth, DNA Synthesis and RNA Synthesis of L1210 Cultivated Leukemic Cells of Mice
For example, L1210 cells were inoculated in a concentration of 5×10^4 cells/ml in an RPMI 1640 culture medium (Roswell Park Memorial Institute 1640) containing 20% calf serum and, simultaneously, representative compounds of the present invention were added in a concentration of 0.1 and 0.5 μg/ml. The cells were cultivated in a CO2 generator at 37° C. The 50% growth inhibitory concentration with respect to a control group was then determined.

[2] = system: L1210 leukemia cells, DNA synthesis; experiment: Inhibition of DNA synthesis (14C-thymidine incorporation) of L1210 cultivated leukemic cells; type: cell-based; conditions: Mus musculus, L1210, 1 h, 14C-thymidine, 60 minutes, 37° C.; for IC50: read-out: IC50 DNA synthesis; for IC90: 90% inhibition, read-out: IC90 DNA synthesis
Procedure: as §1
(§2) Separately, the above L1210 cultivated cells were suspended in a concentration of 5×10^5 cells/ml in an RPMI 1640 medium containing 10% calf serum and cultivated for 1 to 2 hours in a CO2 incubator at 37° C. Then, representative test compounds were added in various concentrations, and 15 minutes later, ^14 C-uridine (0.05 μCi/ml) or ^14 C-thymidine (0.05 μCi/ml) were added. The cells were incubated at 37° C. for 60 minutes. A 10% aqueous trichloroacetic acid solution was added to the incubation medium to stop the reaction and simultaneously precipitate acid-insoluble matter. The acid-insoluble matter was washed three times with a 5 to 10% aqueous solution of trichloroacetic acid and then dissolved in formic acid. The radioactivity of the acid-insoluble matter was measured. From the ratio of incorporated radiation to that of a control group, the concentrations which inhibited radiation by 10%, 50% and 90% respectively were measured.

[3] = system: L1210 leukemia cells, RNA synthesis; experiment: Inhibition of RNA synthesis (14C-uridine incorporation) of L1210 cultivated leukemic cells; type: cell-based; conditions: Mus musculus, L1210, 1 h, 14C-uridine, 60 minutes, 37° C.; for IC50: read-out: IC50 RNA synthesis; for IC90: 90% inhibition, read-out: IC90 RNA synthesis
Procedure: as §1, §2

[4] = system: Bacillus cereus ATCC 10702; experiment: MIC on nutrient agar medium; type: cell-based; conditions: ATCC10702
From the text: (§3) The compounds of formula I provided by the present invention are also characterized by their antimicrobial activity. Table 3 summarizes the minimum inhibitory concentrations (MIC) of representative compounds of the present invention against various microorganisms on a nutrient agar medium.

Bacillus megatherium APF = experiment: MIC on nutrient agar medium; type: cell-based
From the text: as §3

[5] = system: Bacillus subtilis NRRB- 558; experiment: MIC on nutrient agar medium; type: cell-based; conditions: NRRB558
From the text: as §3

[6] = system: Bacillus subtilis PCI 219; experiment: MIC on nutrient agar medium; type: cell-based; conditions: PCI219
From the text: as §3

Candida albicans 3147 = experiment: MIC on nutrient agar medium; type: cell-based
From the text: as §3

[7] = system: Corynebacterium bovis 1810; experiment: MIC on nutrient agar medium; type: cell-based
From the text: as §3

Escherichia coli NIHJ = experiment: MIC on nutrient agar medium; type: cell-based
From the text: as §3

[8] = system: Klebsiella pneumonia PCI 602; experiment: MIC on nutrient agar medium; type: cell-based; conditions: Klebsiella pneumoniae, PCI602
From the text: as §3

Microccus flavus FDA 16 = experiment: MIC on nutrient agar medium; type: cell-based
From the text: as §3

[9] = system: Microccus lysodeikticus IFQ 3333; experiment: MIC on nutrient agar medium; type: cell-based
From the text: as §3

[10] = system: Mycobacterium smegmatis ATCC 607; experiment: MIC on nutrient agar medium; type: cell-based; conditions: Mycolicibacterium smegmatis, ATCC607
From the text: as §3

[11] = system: Pseudomonas aeruginosa A3; experiment: MIC on nutrient agar medium; type: cell-based
From the text: as §3

Salmonella typhi T - 63 = experiment: MIC on nutrient agar medium; type: cell-based; conditions: Salmonella enterica
From the text: as §3

Sarcina lutea PCI 1001 = experiment: MIC on nutrient agar medium; type: cell-based; conditions: Micrococcus luteus, PCI1001
From the text: as §3

[12] = system: Shigella flexneri 46 JS 11811; experiment: MIC on nutrient agar medium; type: cell-based; conditions: 46JS11811
From the text: as §3

[13] = system: Staphylococcus aureus FDA 209; experiment: MIC on nutrient agar medium; type: cell-based; conditions: FDA209
From the text: as §3

[14] = system: Staphylococcus aureus smith; experiment: MIC on nutrient agar medium; type: cell-based
From the text: as §3

L1210 leukemia cells [15] = experiment: Antitumor activity on CDFI mouse leukemia induced by mouse L1210 leukemia cells; type: in vivo, CDFI mice; design: key to Toxicity: *: Toxicity-
Procedure: B. Antitumor Activity on CDFI Mouse Leukemia Induced by Mouse L1210 Leukemia cells
L1210 leukemia cells of mice were intraperitoneally transplanted in an amount of 1×10^5 cells/mouse in CDFI mice. Starting 24 hours after the transplantation, each of the test compounds was intraperitoneally administered to the mice for 10 consecutive days. the survival rate (T/C, %) was calculated in comparison with a control group (to which physiological saline was administered).

[16] = L1210, 24 h, 1 day later, read-out: IC50 growth, 1 day later
[17] = L1210, 48 h, 2 days later, read-out: IC50 growth, 2 days later
[18] = 2.5 mg/kg/day, intraperitoneal, 10 consecutive days

Compound: C[C@@H]1O[C@@H](O[C@@H]2C[C@@](O)(C(=O)CO)Cc3cc4c(c(O)c32)C(=O)c2ccccc2C4=O)C[C@H](N)[C@@H]1O (single isomer, unassigned; isomer 4) [4-Demethoxy-11-deoxy-adriamycin (7R,9R,1'α)isomer, 4-Demethoxy-11-deoxyadriamycin]
IC50 (L1210 leukemia cells [1]; [16]): 72.5 µg/mL (≈ 146 µM)
IC50 (L1210 leukemia cells [1]; [17]): 72.5 µg/mL (≈ 146 µM)
IC50 [2]: > 10 µg/mL
IC90 [2]: > 10 µg/mL
IC50 [3]: > 10 µg/mL
IC90 [3]: > 10 µg/mL
MIC [4]: > 100 µg/mL
MIC (Bacillus megatherium APF): > 100 µg/mL
MIC [5]: > 100 µg/mL
MIC [6]: > 100 µg/mL
MIC (Candida albicans 3147): > 100 µg/mL
MIC [7]: > 100 µg/mL
MIC (Escherichia coli NIHJ): > 100 µg/mL
MIC [8]: > 100 µg/mL
MIC (Microccus flavus FDA 16): > 100 µg/mL
MIC [9]: > 100 µg/mL
MIC [10]: 100 µg/mL (≈ 201 µM)
MIC [11]: > 100 µg/mL
MIC (Salmonella typhi T - 63): > 100 µg/mL
MIC (Sarcina lutea PCI 1001): > 100 µg/mL
MIC [12]: > 100 µg/mL
MIC [13]: > 100 µg/mL
MIC [14]: > 100 µg/mL

Compound: C[C@@H]1O[C@@H](O[C@H]2C[C@](O)(C(=O)CO)Cc3cc4c(c(O)c32)C(=O)c2ccccc2C4=O)C[C@H](N)[C@@H]1O (single isomer, unassigned; isomer 4) [4-Demethoxy-11-deoxy-adriamycin (7S,9S,1'α)isomer, 4-Demethoxy-11-deoxyadriamycin]
IC50 (L1210 leukemia cells [1]; [16]): 0.07 µg/mL (≈ 0.141 µM)
IC50 (L1210 leukemia cells [1]; [17]): 0.03 µg/mL (≈ 0.0603 µM)
IC50 [2]: 0.64 µg/mL (≈ 1.29 µM)
IC90 [2]: 5.6 µg/mL (≈ 11.3 µM)
IC50 [3]: 0.8 µg/mL (≈ 1.61 µM)
IC90 [3]: 4.6 µg/mL (≈ 9.25 µM)
Survival rate (T/C, %) (L1210 leukemia cells [15]; 0.15 mg/kg/day, intraperitoneal, 10 consecutive days): 135%
Survival rate (T/C, %) (L1210 leukemia cells [15]; 0.3 mg/kg/day, intraperitoneal, 10 consecutive days): 162%
Survival rate (T/C, %) (L1210 leukemia cells [15]; 0.6 mg/kg/day, intraperitoneal, 10 consecutive days): 184%
Survival rate (T/C, %) (L1210 leukemia cells [15]; 1.25 mg/kg/day, intraperitoneal, 10 consecutive days): 308%
Survival rate (T/C, %) (L1210 leukemia cells [15]; [18]): 177%
Toxicity (L1210 leukemia cells [15]; [18]): *
antitumor activity on experimental animal tumors (in words) (L1210 leukemia cells [15]; experimental animal tumors): particularly noteworthy
MIC [4]: 25 µg/mL (≈ 50.3 µM)
MIC (Bacillus megatherium APF): 12.5 µg/mL (≈ 25.1 µM)
MIC [5]: 12.5 µg/mL (≈ 25.1 µM)
MIC [6]: 12.5 µg/mL (≈ 25.1 µM)
MIC (Candida albicans 3147): > 100 µg/mL
MIC [7]: 100 µg/mL (≈ 201 µM)
MIC (Escherichia coli NIHJ): > 100 µg/mL
MIC [8]: > 100 µg/mL
MIC (Microccus flavus FDA 16): 50 µg/mL (≈ 101 µM)
MIC [9]: 50 µg/mL (≈ 101 µM)
MIC [10]: 12.5 µg/mL (≈ 25.1 µM)
MIC [11]: > 100 µg/mL
MIC (Salmonella typhi T - 63): > 100 µg/mL
MIC (Sarcina lutea PCI 1001): 100 µg/mL (≈ 201 µM)
MIC [12]: > 100 µg/mL
MIC [13]: 100 µg/mL (≈ 201 µM)
MIC [14]: 12.5 µg/mL (≈ 25.1 µM)

Compound: CC(=O)[C@@]1(O)Cc2cc3c(c(O)c2[C@H](O[C@H]2C[C@H](N)[C@H](O)[C@H](C)O2)C1)C(=O)c1ccccc1C3=O (single isomer, unassigned; isomer 4) [4-Demethoxy-11-deoxy-daunomycin (7R,9R,1'α)isomer, 4-Demethoxy-11-deoxydaunomycin]
IC50 (L1210 leukemia cells [1]; [16]): > 2.5 µg/mL
IC50 (L1210 leukemia cells [1]; [17]): > 2.5 µg/mL
IC50 [2]: 5.4 µg/mL (≈ 11.2 µM)
IC90 [2]: 13 µg/mL (≈ 27 µM)
IC50 [3]: 9 µg/mL (≈ 18.7 µM)
IC90 [3]: > 10 µg/mL
MIC [4]: 50 µg/mL (≈ 104 µM)
MIC (Bacillus megatherium APF): 50 µg/mL (≈ 104 µM)
MIC [5]: 50 µg/mL (≈ 104 µM)
MIC [6]: 100 µg/mL (≈ 208 µM)
MIC (Candida albicans 3147): > 100 µg/mL
MIC [7]: 100 µg/mL (≈ 208 µM)
MIC (Escherichia coli NIHJ): > 100 µg/mL
MIC [8]: > 100 µg/mL
MIC (Microccus flavus FDA 16): > 100 µg/mL
MIC [9]: > 100 µg/mL
MIC [10]: 100 µg/mL (≈ 208 µM)
MIC [11]: > 100 µg/mL
MIC (Salmonella typhi T - 63): > 100 µg/mL
MIC (Sarcina lutea PCI 1001): 50 µg/mL (≈ 104 µM)
MIC [12]: > 100 µg/mL
MIC [13]: > 100 µg/mL
MIC [14]: > 100 µg/mL

IC50 (L1210 leukemia cells [1]; [16]): 2 µg/mL (≈ 4.15 µM)
IC50 (L1210 leukemia cells [1]; [17]): 1.25 µg/mL (≈ 2.6 µM)
IC50 [2]: 4.5 µg/mL (≈ 9.35 µM)
IC90 [2]: 15 µg/mL (≈ 31.2 µM)
IC50 [3]: 5 µg/mL (≈ 10.4 µM)
IC90 [3]: 13 µg/mL (≈ 27 µM)
Compound: CC(=O)[C@@]1(O)Cc2cc3c(c(O)c2[C@H](O[C@@H]2C[C@H](N)[C@H](O)[C@H](C)O2)C1)C(=O)c1ccccc1C3=O (single isomer, unassigned; isomer 4) [4-Demethoxy-11-deoxy-daunomycin (7R,9R,1'β )isomer, 4-Demethoxy-11-deoxydaunomycin]

IC50 (L1210 leukemia cells [1]; [16]): 1.4 µg/mL (≈ 2.91 µM)
IC50 (L1210 leukemia cells [1]; [17]): 0.51 µg/mL (≈ 1.06 µM)
IC50 [2]: 3.1 µg/mL (≈ 6.44 µM)
IC90 [2]: 15 µg/mL (≈ 31.2 µM)
IC50 [3]: 5.4 µg/mL (≈ 11.2 µM)
IC90 [3]: 14 µg/mL (≈ 29.1 µM)
Compound: CC(=O)[C@]1(O)Cc2cc3c(c(O)c2[C@@H](O[C@@H]2C[C@H](N)[C@H](O)[C@H](C)O2)C1)C(=O)c1ccccc1C3=O (single isomer, unassigned; isomer 4) [4-Demethoxy-11-deoxy-daunomycin (7S,9S,1'β)isomer, 4-Demethoxy-11-deoxydaunomycin]
